Experimental findings from ChEMBL document CHEMBL3301361, “Experimental in vitro DMPK and physicochemical data on a set of publicly disclosed compounds” are described below.

This series can be described thus: physchem. The following applies: octan-1-ol/water, pH 7.4, LogD7.4.

Usually logD stands for the decadic logarithm of the distribution of all forms, ionised or not, between an organic phase and buffer at a given pH. The low end stands for lower lipophilicity, the high end for higher lipophilicity. For the compound `CN(C)CC(O)COc1ccc(Nc2nccc(Nc3ccccc3)n2)cc1` (stereo not given), the logD was 1.58.
On to `c1ccc(-c2n[nH]c(-c3ccncc3)n2)nc1`, for which the logD came out at 1.48.
As to `COc1ccccc1Oc1ccc(N(Cc2cccnc2)S(=O)(=O)CC(F)(F)F)cc1`, the logD worked out at 1.5.
`CC(C)CC(c1ccncc1)n1[nH]c(=O)c2nc3cc(Cl)ccc3c(O)c2c1=O` (stereo not given) registered a logD of 1.64.
With `Cc1cc(C)cc(-c2c(O)nc3cc(Cl)c(C(=O)Nc4ccncn4)cc3c2OCCC2CCCCN2)c1` (stereo not given), the logD was 1.7.
`CC(=O)NC[C@H]1CN(c2ccc(N3CCN(c4cnccn4)CC3)c(F)c2)C(=O)O1`: the logD came out at 1.49.
On to `N=C(N)SCc1ccc(Cl)c(Cl)c1`, for which the logD was 1.28.
With `CC(C)Nc1ccc2cnn(-c3cncc(-n4ccc(CC(=O)O)c4)n3)c2c1`, the logD was 1.24.
The result for `C[C@H](N)C(=O)N[C@H](/C=C/S(=O)(=O)c1ccccc1)CCc1ccccc1` reads 1.66; that for `O=C(Oc1ccccc1)N1CCOCC1`, 1.3; that for `O=C1Nc2ccccc2C1(O)c1ccccc1` (stereo not given), 1.71.
As for `CC(C)C(=O)Nc1ccc2c(c1)C(=O)NC2=O`, the logD came out at 1.55.
Compound `COC(Cn1c(=O)[nH]c2c(=O)n(CC(=O)NC(C(=O)C(F)(F)F)C(C)C)c(-c3ccccc3)cc2c1=O)OC` (stereo not given) gave a logD of 1.56.
The result for `CN(C)c1ccnc2sc(C(N)=O)c(N)c12` reads 1.7; that for `CC(C)N(c1nnc(N)s1)C(C)C`, 1.49.
The result for `Cc1oc(-c2ccc(Cl)cc2)cc1C(=O)O` reads 1.67.
For the compound `c1ccc(CN(Cc2ccccc2)c2nn[nH]n2)cc1`, the logD was 1.37.
For the compound `CC(=O)NC[C@H]1CN(c2ccc(-n3ccc(C#N)c3)c(F)c2)C(=O)O1`, the logD was 1.6.
`NC(=O)Cc1nc(-c2ccccc2)cs1` yielded a pH-dependent lipophilicity (logD) of 1.3.
`O=S(=O)(Nc1cccnc1)c1ccc2c(c1)OCCO2`: the logD turned out to be 1.34.
Turning to `O=S(=O)(Nc1cccc2[nH]ncc12)c1cccs1`, the logD amounted to 1.7.
`CSc1ncccc1C(=O)Nc1nccs1` returned a logD of 1.43.
`Cc1ccc(O)c(O)c1` showed a logD of 1.37.
Next, `Nc1nc2ccccc2n1C(=O)c1ccccc1`: 1.56.
In the case of `Cc1cc(N)n(-c2ccccc2)n1`, the logD was determined as 1.25.
Turning to `CC(=O)N1CCN(CC(O)COc2ccc(Br)cc2)CC1` (stereo not given), the logD was 1.6.
Next, `Clc1ccc(C2=CSC3=NCCN23)cc1Cl`: 1.54.
Regarding `Nc1c(C(=O)NC2CC2)nnc2c(-c3ncccn3)cccc12`, the logD worked out at 1.5.
Next, `Cc1cc(CN2Cc3ccccc3C2C(=O)Nc2ccc(Cl)cc2)ccc1OCC(=O)O` (stereo not given): 1.38; `Nc1ncc(-c2ccc(F)cc2)[nH]1`: 1.39; `CCCc1c(OCCCCSCC(=O)O)ccc(C(C)=O)c1O`: 1.3.
For the compound `NS(=O)(=O)c1nc2ccccc2s1`, the log distribution coefficient (logD) amounted to 1.35.
On to `COc1ccc(C(CNC(=O)Nc2ccccc2)N2CCN(C)CC2)cc1` (stereo not given), for which the logD turned out to be 1.5.
`COCCNCc1cncc(-c2ccc(F)cc2OC)n1` showed a logD of 1.61.
Regarding `COc1ccc2nc(C)cc(-n3cc(CNC(C)=O)nn3)c2c1`, the logD came to 1.6.
For the compound `Cc1nsc(C)c1CCC1CCN(S(=O)(=O)CC2(N(O)C=O)CCOCC2)CC1`, the logD was determined as 1.5.
The compound `C[C@H]1O[C@@H](n2cnc3c(N)nc(OC4CC5CC5C4)nc32)[C@H](O)[C@@H]1O` (stereo not given in full) displayed a logD of 1.66.
`O=S(=O)(c1ccccc1-c1ccc(CNC2CCOCC2)cc1)N1CCCC1` came in with a logD of 1.4.
The compound `CCC(c1nc2ccsc2c(=O)n1Cc1ccc(C)cc1)N(CCCN)C(=O)c1ccc(C)cc1` (stereo not given) yielded a logD of 1.69.
Compound `CCC(c1nc2ccsc2c(=O)n1Cc1ccccc1)N(CC1CCNCC1)C(=O)c1ccc(C)cc1` (stereo not given) came in with a logD of 1.33.
Consider `CCC(c1nc2ccsc2c(=O)n1Cc1ccccc1)N(CCCN)C(=O)c1ccc(OC)cc1` (stereo not given), for which the logD was 1.39.
As for `CCC(c1nc2ccoc2c(=O)n1Cc1ccccc1)N(CCCN)C(=O)c1ccc(C)cc1` (stereo not given), the logD was found to be 1.37.
Next, `CCC(c1nc2snc(C)c2c(=O)n1Cc1ccccc1)N(CCCN)C(=O)c1ccc(C)cc1` (stereo not given): 1.61; `Cc1ccc(NC(=O)c2ccnc(N3CCOCC3)c2)cc1Nc1ccnc(OCCCN(C)C)n1`: 1.3; `NC(=O)c1ccc(=O)n(Cc2ccc(F)c(F)c2)c1`: 1.37.
Regarding `OC1(c2ccccc2)CNCCc2ccccc21` (stereo not given), the logD was 1.38.
Turning to `CCC(CC)NC(=O)c1cnn(Cc2ccccc2)c1NS(=O)(=O)c1ccc(C)cc1`, the logD is 1.52.
Next, `C[C@H]1O[C@@H](n2cnc3c(N)nc(OCC4CC(F)(F)C4(F)F)nc32)[C@H](O)[C@@H]1O` (stereo not given in full): 1.42; `CN[C@@H](C)C(=O)N[C@H](C(=O)N[C@H]1CCCN(CCc2cccc(OC)c2)C1)C(C)(C)C`: 1.47.
Next, `CN[C@@H](C)C(=O)N[C@H](C(=O)N[C@H]1CCCN(CCc2ccc(OC)cc2)C1)C(C)(C)C`: 1.45; `Nc1n[nH]c2c(Cl)cccc12`: 1.7.
`COc1ccc(-c2nc3c(NCC4CCNCC4)c(Br)cnc3[nH]2)cc1`: the logD was determined as 1.36.
Turning to `COc1ccc(-c2cc(=O)[nH]c(N)n2)cc1`, the logD is 1.52.
The compound `O=c1c2ccc(O)cc2ncn1-c1ccc(O)cc1` had a log distribution coefficient (logD) of 1.6.
For `O=C(O)Cc1ccc(-c2ccc(NC(=O)c3nnc(Nc4ccccc4F)o3)cc2)cc1`, the logD stood at 1.5.
Next, `CC(C)Cn1c(=O)n(C)c(=O)c2c(C(=O)N3CC[C@@H](O)C3)c(Cc3ccnc4ccccc34)sc21`: 1.65; `NC(=O)Nc1cc(-c2cccc(F)c2F)sc1C(=O)N[C@H]1CCCNC1`: 1.32.
With `c1ccc2c(c1)nnn2-c1ccncc1`, the logD came out at 1.69.
In turn, `CCCSc1ncccc1C(=O)N(C)C1CCOCC1` displayed a logD of 1.63.
The result for `CCCSc1nc(N2CCCCC2C(=O)O)ccc1C(=O)NC1CCCCC1` (stereo not given) reads 1.36; that for `O=C(O)C(c1ccccc1)N1CCO[C@@H](CN2CCC(Oc3ccc(Cl)c(Cl)c3)CC2)C1` (stereo not given in full), 1.71; that for `Cc1ccc(S(=O)(=O)NC(=O)N2CCC(N3CCC(Oc4ccc(Cl)cc4)CC3)CC2)cc1`, 1.6.
With `CN1CCN(c2ccc(Nc3ccnc4ccccc34)cc2)CC1`, the logD worked out at 1.3.
In the case of `Cc1nc(C)c(-c2ccc3c(c2)CC[C@]32CC[C@@H](c3nnn[nH]3)CC2)nc1C(N)=O`, the logD was 1.4.
`Cc1nc(C)c(-c2ccc([C@H]3CC[C@H](CC(=O)O)CC3)c(F)c2)nc1C(N)=O` registered a logD of 1.3.
Take `CC1=NC(C)(c2cccc(-c3cccnc3)c2)N=C1N` (stereo not given): the logD was 1.7.
Regarding `C1=CCC(c2ccc3ccccc3c2)CNC1` (stereo not given), the logD was found to be 1.64.
`CC(NC(=O)C1(N)CCN(c2ncnc3[nH]ccc23)CC1)c1ccccn1` (stereo not given) returned a logD of 1.3.
Compound `CN(C)CCCC(NC(=O)C1(N)CCN(c2ncnc3[nH]ccc23)CC1)c1ccc(Cl)cc1` (stereo not given) showed a logD of 1.4.
`NC1(C(=O)NC(CCCN2CCCC2)c2ccc(Cl)cc2)CCN(c2ncnc3[nH]ccc23)CC1` (stereo not given): the logD turned out to be 1.3.
Regarding `CN(C)CCNCc1ccc(Nc2ncc3cc(-c4ccncc4)ccc3n2)cc1`, the logD was 1.4.
The result for `C[C@@H](NC(=O)[C@H]1CCCNC1)c1ccc(Nc2ncc3cc(-c4ccncc4)ccc3n2)cc1` reads 1.69; that for `CNCc1cccc(-c2ccc3c(N4CCOCC4)nc(N4C[C@@H](C)O[C@@H](C)C4)nc3n2)c1`, 1.26; that for `CCCCCc1cc(=O)[nH]c(N)n1`, 1.62.
`NC1=NC(c2ccc(Cl)c(Cl)c2)CC(=O)N1` (stereo not given) displayed a logD of 1.46.
Consider `O=[N+]([O-])c1ccc(C=NO)o1`, for which the logD was 1.31.
The result for `Cc1ccc(C(=O)N(CCCN)Cc2nc3cc(Cl)ccc3c(=O)n2Cc2ccccc2)cc1` reads 1.47.
The result for `CC(C)C(NC(=O)Cn1c(-c2cc(F)cc(F)c2)ncc(N)c1=O)C(=O)C(F)(F)F` (stereo not given) reads 1.38; that for `Cn1c(=N)n(CC(=O)c2ccc(Cl)cc2)c2ccccc21`, 1.63.
`O=C(NCCCN1CCCCC1)C(c1ccccc1)c1ccccc1` gave a logD of 1.33.
Next, `C[C@@H]1CN(C(=O)[C@@](C)(O)C(F)(F)F)[C@@H](C)CN1C(=O)c1ccc(C#N)cc1`: 1.5; `CN(C)CC(O)COc1ccc(Nc2cc(Nc3ccc(F)cc3F)ncn2)cc1` (stereo not given): 1.48.
The result for `CNC(=O)c1cccc(S(=O)(=O)Nc2ncc(C)nc2OC)c1-c1ccc(CC(C)C)cc1` reads 1.68.
`CC(C)C(NC(=O)Cn1c(-c2ccccc2)ccc(NC(=O)NCc2ccc[n+]([O-])c2)c1=O)C(=O)C(F)(F)F` (stereo not given): the logD was determined as 1.48.
`O=C(Nc1ccc(O)cc1)c1ccc(O)cc1` yielded a logD of 1.5.
`C[Si](C)(C)C#Cc1cn(C[C@H]2CN(c3ccc(C4=CCS(=O)(=O)CC4)c(F)c3)C(=O)O2)nn1` yielded a logD of 1.26.
As for `COc1cc2c(Nc3c(Cl)ccc4c3OCO4)ncnc2cc1OCCCN1CCCC1`, the logD came out at 1.62.
`O=C(NCC12CC3CC(CC(C3)C1)C2)c1cc(C2CCNCC2)ccc1Cl` returned a logD of 1.58.
In turn, `CC1(c2ccc(Cl)c(Cl)c2)CC(=O)NC(N)=N1` (stereo not given) came in with a logD of 1.59.
`O=C(O)c1ccc(Nc2ncc(Br)c(Nc3ccccc3)n2)cc1` displayed a logD of 1.65.
Compound `CC(=O)NC[C@H]1CN(c2ccc(-n3cnc(C#N)c3)c(F)c2)C(=O)O1` yielded a logD of 1.51.
As to `Clc1ccc(C2(c3ccc(-c4cn[nH]c4)cc3)CCNCC2)cc1`, the logD is 1.51.
Next, `Oc1c2ncc3ccccc3c2nn1-c1ccc(Cl)cc1`: 1.52; `COC(=O)COc1ccc(OCCNCC(O)COc2ccccc2)cc1` (stereo not given): 1.54; `NC(=O)Nc1sc(-c2ccccc2)cc1C(=O)N[C@H]1CCCNC1`: 1.27.
Next, `O=C(c1cc2cc(Cl)ccc2[nH]1)N1CCNCC1`: 1.65.
In turn, `Cc1cc(N)c2cc(NC(=O)CCC(=O)Nc3ccc4nc(C)cc(N)c4c3)ccc2n1` yielded a logD of 1.39.
The result for `CC(C)CCCC(C)/N=c1\ccn(Cc2ccccc2)c2cc(Cl)ccc12` (stereo not given) reads 1.58; that for `CNC[C@H](O)c1ccc(Cl)c(C(=O)NCC23CC4CC(CC(C4)C2)C3)c1`, 1.41.
`Nc1ccc2ncccc2c1` yielded a logD of 1.33.
